Data set [1] relates to mouse liver. The data set can be described thus: ANIT diet liver fibrosis model (Picrosirius red staining, qRT-PCR). The following applies: ANIT diet 4 weeks vs control diet. The text has this: Fibrosis is a universal pathological finding for chronic diseases in any organ(14) and it would be useful to identify biomarkers of fibrosis that are specific for an organ or be able to indicate their origin.
Animals were housed in an Association for Assessment and Accreditation of Laboratory Animal Care International-accredited facility at Michigan State University and all procedures were approved by the Michigan State University Institutional Animal Care and Use Committee.
(§1) Formalin fixed, paraffin embedded kidney sections were Masson Trichrome's stained and evaluated by a renal pathologist under a light microscope in blinded fashion relative to sample group. Percent area of fibrosis relative to the total section area was evaluated. Sirius red staining of the […] sections was performed at the Michigan State University Investigative Histopathology Laboratory.
(§2) Total RNA was extracted from frozen kidney tissue using TRIzol reagent (Invitrogen). Following RNA concentration measurement by NanoDrop spectrophotometer (Thermo Fischer Scientific), 1 μg RNA was used for cDNA preparation using QuantiTect Reverse Transcription Kit from Qiagen (Valencia, Calif.). qRT-PCR using QuantiFast SYBR Green PCR Kit (Qiagen) was performed in 384-well plates on an Applied Biosystems 7900HT Fast Real-Time PCR System instrument with the following temperature profile: 3 min enzyme activation at 95° C. followed by 40 cycles of 95° C. for 10 s, and 55° C. for 30 s. Primer pairs used are listed in Supplementary Table 1. Gapdh was used as reference gene for normalization. The SDS 2.4 software (Applied Biosystems) was used to compute the threshold cycle (Cq) and the relative expression for an mRNA was assessed using the 2^−ΔCq method.

Data set [2] concerns kidney fibrosis after FA injection in mice. The data set can be described thus: Enalapril treatment in folic acid (FA) nephropathy model of kidney fibrosis (histology, qRT-PCR). It is filed as in vivo, mouse. The note with it: day 14. As to the method:
Conversely, to test if the markers reflect recovery from fibrosis interventions on the renin-angiotensin system were used.
Mice were sacrificed at 1, 2, 3, 7 and 14 days following administration. […] All mice were sacrificed at 14 days.
as §1, §2
Background: Real-time PCR tracks product formation cycle by cycle.

Setting [3] is: enalapril 200 mg/l in drinking water after FA injection, kidney qRT-PCR vs control.

The record followed here is US10119168B2, “Methods for the treatment of kidney fibrosis” (priority 2014, dated 2018).

Take `S=C=Nc1cccc2ccccc12` [ANIT, α-naphthylisothiocyanate]: in data set [1], the Mgp gene level entry is “significantly higher (p<0.05) gene levels”, the Scn7a gene level entry is on record as “significantly higher (p<0.05) gene levels”, the Sytl2 gene level entry is on record as “significantly higher (p<0.05) gene levels” and the “collagen 1a1 gene expression” value was “significantly increased collagen 1a1 gene expression”.

Regarding `CCOC(=O)[C@H](CCc1ccccc1)N[C@@H](C)C(=O)N1CCC[C@H]1C(=O)O` [enalapril], the “kidney fibrosis development (histological assessment)” value in data set [2] (enalapril 200 mg/l continuously in drinking water after FA injection, vs plain water control) was “reduced kidney fibrosis development”. Also, the “reduction of collagen 1a1 mRNA expression” value in data set [2] (enalapril 200 mg/l in drinking water after FA injection, kidney qRT-PCR) is ~3 fold. Further, in data set [2] (setting [3]), the “Cdh11 gene expression level” value was “significant (p<0.05) decreases”, the “Gabrp gene expression level” value is given as “significant (p<0.05) decreases”, the “Mrc1 gene expression level” value is reported as “significant (p<0.05) decreases” and the “Scn7a gene expression level” value is listed as “significant (p<0.05) decreases”. Moreover, in data set [2] (setting [3]), the “Smoc2 gene expression level” value is recorded as “significant (p<0.05) decreases”.
